# “And” between values parts separate entries of the source, which are not always exact repeats. Equal entries are not always repeated. Where two headings read alike, the source gives them in different places.
# What was measured:
# clinical = format: in vivo; conditions: for half-life / AUC(0-t) / Cmax / Tmax: human, plasma, oral
# [1] = system: melanoma cell line 537Mel (PTEN-null); test: Xenograft growth; format: in vivo, mice; conditions: 537Mel PTEN-null melanoma xenograft, QD, dose-dependent
# [2] = system: breast cancer cell line KPL4 (PIK3CA H1047R); test: Xenograft growth; format: in vivo, mice
# cancer cell lines = test: Cell viability assay; format: cell-based
# [3] = 100 mg (n = 2), steady state, individual values
# [4] = 100 mg, Day 15, 100 mg (n = 2), steady state, individual values
compound,measurement,setting,value
CC(C)NC[C@@H](C(=O)N1CCN(c2ncnc3c2[C@H](C)C[C@H]3O)CC1)c1ccc(Cl)cc1 [Ipatasertib],"Accumulation ratio, AUC0–24,ss (day 15)/AUC0–24 (day 1)","clinical; 25 mg (n = 3), geometric mean (%CV)",2.78 (15.7%)
same,"Accumulation ratio, AUC0–24,ss (day 15)/AUC0–24 (day 1)","clinical; 50 mg (n = 3), geometric mean (%CV)",2.43 (32.1%)
same,"AUC0–24,ss, Day 15",clinical; [3],568 ng·h/mL and 239 ng·h/mL
same,"Cmax, Day 15",clinical; [3],53.0 ng/mL
same,"Accumulation ratio, AUC0–24,ss (day 15)/AUC0–24 (day 1)","clinical; 100 mg (n = 2), individual values",2.57 and 0.927
same,clinical exposure relative to preclinical efficacy,"clinical; 100 mg, most sensitive preclinical models",equivalent to TGI 60
same,"Accumulation ratio, AUC0–24,ss (day 15)/AUC0–24 (day 1)","clinical; 200 mg (n = 3), geometric mean (%CV)",2.44 (28.1%)
same,"Accumulation ratio, AUC0–24,ss (day 15)/AUC0–24 (day 1)","clinical; 400 mg (n = 3), geometric mean (%CV)",1.95 (36.5%)
same,"t1/2, Day 1","clinical; 600 mg (n = 7), single dose, geometric mean (range)",45.8 (36.7–55.0) h
same,"Accumulation ratio, AUC0–24,ss (day 15)/AUC0–24 (day 1)","clinical; 600 mg (n = 7), geometric mean (%CV)",1.80 (73.6%)
same,"Accumulation ratio, AUC0–24,ss (day 15)/AUC0–24 (day 1)","clinical; 800 mg (n = 5), geometric mean (%CV)",2.22 (20.0%)
same,"mean accumulation ratio (AUC0–24,ss/AUC0–24, day 1), range over doses",clinical; doses of 200 mg to 800 mg,1.80 to 2.44
same,half-life,clinical,31.9 to 53 h
same,half-life,clinical; 25 mg,4.46 h
same,AUC(0-t),"clinical; 25 mg, AUC0–24, Day 1, 25 mg (n = 3), single dose, geometric mean (%CV)",31.8 ng·h/mL
same,AUC(0-t),"clinical; 25 mg, AUC0–24,ss, Day 15, 25 mg (n = 3), steady state, geometric mean (%CV)",88.3 ng·h/mL
same,Cmax,"clinical; 25 mg, Day 1, 25 mg (n = 3), single dose, geometric mean (%CV)",8.93 ng/mL
same,Cmax,"clinical; 25 mg, Day 15, 25 mg (n = 3), steady state, geometric mean (%CV)",8.92 ng/mL
same,Tmax,"clinical; 25 mg, Day 1, 25 mg (n = 3), single dose, median (range)",0.5 h
same,Tmax,"clinical; 25 mg, Day 15, 25 mg (n = 3), steady state, median (range)",0.5 h
same,half-life,clinical; 50 mg,10.1 h
same,AUC(0-t),"clinical; 50 mg, AUC0–24, Day 1, 50 mg (n = 3), single dose, geometric mean (%CV)",70.3 ng·h/mL
same,AUC(0-t),"clinical; 50 mg, AUC0–24,ss, Day 15, 50 mg (n = 3), steady state, geometric mean (%CV)",171 ng·h/mL
same,Cmax,"clinical; 50 mg, Day 1, 50 mg (n = 3), single dose, geometric mean (%CV)",13.3 ng/mL
same,Cmax,"clinical; 50 mg, Day 15, 50 mg (n = 3), steady state, geometric mean (%CV)",33.9 ng/mL
same,Tmax,"clinical; 50 mg, Day 1, 50 mg (n = 3), single dose, median (range)",2.92 h
same,Tmax,"clinical; 50 mg, Day 15, 50 mg (n = 3), steady state, median (range)",1 h
same,half-life,clinical; 100 mg,31.9 h
same,AUC(0-t),"clinical; 100 mg, AUC0–24, Day 1, 100 mg (n = 3), single dose, geometric mean (%CV)",260 ng·h/mL
same,Cmax,"clinical; 100 mg, Day 1, 100 mg (n = 3), single dose, geometric mean (%CV)",59.8 ng/mL
same,Cmax,clinical; [4],76.2 ng/mL
same,Tmax,"clinical; 100 mg, Day 1, 100 mg (n = 3), single dose, median (range)",2.97 h
same,Tmax,clinical; [4],0.5 to 0.67 h
same,half-life,clinical; 200 mg,39.1 h
same,AUC(0-t),"clinical; 200 mg, AUC0–24, Day 1, 200 mg (n = 3), single dose, geometric mean (%CV)",726 ng·h/mL
same,AUC(0-t),"clinical; 200 mg, AUC0–24,ss, Day 15, 200 mg (n = 3), steady state, geometric mean (%CV)",1770 ng·h/mL
same,Cmax,"clinical; 200 mg, Day 1, 200 mg (n = 3), single dose, geometric mean (%CV)",130 ng/mL
same,Cmax,"clinical; 200 mg, Day 15, 200 mg (n = 3), steady state, geometric mean (%CV)",183 ng/mL
same,Tmax,"clinical; 200 mg, Day 1, 200 mg (n = 3), single dose, median (range)",3 h
same,Tmax,"clinical; 200 mg, Day 15, 200 mg (n = 3), steady state, median (range)",1 h
same,half-life,clinical; 400 mg,53 h
same,AUC(0-t),"clinical; 400 mg, AUC0–24, Day 1, 400 mg (n = 3), single dose, geometric mean (%CV)",1650 ng·h/mL
same,AUC(0-t),"clinical; 400 mg, AUC0–24,ss, Day 15, 400 mg (n = 3), steady state, geometric mean (%CV)",3210 ng·h/mL
same,Cmax,"clinical; 400 mg, Day 1, 400 mg (n = 3), single dose, geometric mean (%CV)",506 ng/mL
same,Cmax,"clinical; 400 mg, Day 15, 400 mg (n = 3), steady state, geometric mean (%CV)",838 ng/mL
same,Tmax,"clinical; 400 mg, Day 1, 400 mg (n = 3), single dose, median (range)",1 h
same,Tmax,"clinical; 400 mg, Day 15, 400 mg (n = 3), steady state, median (range)",1 h
same,half-life,clinical; 600 mg,45.8 h
same,AUC(0-t),"clinical; 600 mg, AUC0–24, Day 1, 600 mg (n = 7), single dose, geometric mean (%CV)",2670 ng·h/mL
same,AUC(0-t),"clinical; 600 mg, AUC0–24,ss, Day 15, 600 mg (n = 7), steady state, geometric mean (%CV)",4450 ng·h/mL
same,Cmax,"clinical; 600 mg, Day 1, 600 mg (n = 7), single dose, geometric mean (%CV)",488 ng/mL
same,Cmax,"clinical; 600 mg, Day 15, 600 mg (n = 7), steady state, geometric mean (%CV)",748 ng/mL
same,Tmax,"clinical; 600 mg, Day 1, 600 mg (n = 7), single dose, median (range)",0.58 h
same,Tmax,"clinical; 600 mg, Day 15, 600 mg (n = 7), steady state, median (range)",0.83 h
same,half-life,clinical; 800 mg,43.8 h
same,AUC(0-t),"clinical; 800 mg, AUC0–24, Day 1, 800 mg (n = 7), single dose, geometric mean (%CV)",3220 ng·h/mL
same,AUC(0-t),"clinical; 800 mg, AUC0–24,ss, Day 15, 800 mg (n = 5), steady state, geometric mean (%CV)",6670 ng·h/mL
same,Cmax,"clinical; 800 mg, Day 1, 800 mg (n = 7), single dose, geometric mean (%CV)",479 ng/mL
same,Cmax,"clinical; 800 mg, Day 15, 800 mg (n = 5), steady state, geometric mean (%CV)",879 ng/mL
same,Tmax,"clinical; 800 mg, Day 1, 800 mg (n = 7), single dose, median (range)",2 h
same,Tmax,"clinical; 800 mg, Day 15, 800 mg (n = 5), steady state, median (range)",3 h
same,tumor growth in vivo,[1],decreases the growth
same,tumor growth in vivo,[2],decreases the growth
same,IC50,"cancer cell lines; read-out: mean IC50 (±SEM), cell viability, cell lines with PTEN loss or PIK3CA mutations, n = 60",4.8 ± 0.56 µM
same,IC50,"cancer cell lines; read-out: mean IC50, cell viability, cells with PIK3CA alterations, n = 40",5 ± 0.71 µM
same,IC50,"cancer cell lines; read-out: mean IC50, cell viability, cells with PTEN alterations, n = 33",3.8 ± 0.73 µM
same,IC50,"cancer cell lines; read-out: mean IC50, cell viability, cells without PIK3CA alterations, n = 60",7.1 ± 0.5 µM
